From publication PMC8533149 (Biomolecules, 2021)

Tested on: HIV-1 LTR-III G-quadruplex (FAM/TAMRA-labeled LTR-III)
Experiment: FRET melting assay, LTR-III G4
Type: binding
Settings: Table S1 primary screening, ligand:ODN 50:1, singlicate
Method in brief: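 Melting is followed by FAM fluorescence (ex 495/em 520 nm) while heating at 1 °C/min from 30 to 95 °C. Labelled ODN at 0.5 μM, pre-annealed in 10 mM Li cacodylate, 100 mM KCl, pH 7.4, mixed with ligand at 50:1 (25 μM), or 20:1 and 2:1 for titration. ΔTm is relative to the 0.25% DMSO buffer control.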

Row | SMILES | LTR-III ΔTm [°C]
1 | CN1C(=O)C(=Cc2ccc(O)cc2)N=C1C=Cc1cccc(C(F)(F)F)c1 [N 873] | 0.4
2 | CC1=NC(=Cc2cccc(C(F)(F)F)c2)C(=O)N1C [M 2375] | -0.2
3 | Cc1ccc(C(O)=CC2=NC(=Cc3ccc(O)cc3)C(=O)N2C)cc1 [N 154] | -0.1
4 | COc1ccc(C=C2N=C(C)N(OC)C2=O)cc1 [M 312] | -0.2
5 | CC(=O)C1=N/C(=C\c2c[nH]c3ccccc23)C(=O)N1C [M 1975] | -0.6
6 | CSC(=CC1=NC(=Cc2ccc(O)cc2)C(=O)N1C)c1ccccc1 [SA 599.21] | -0.3
7 | CN1C(=O)C(=Cc2ccc(C#N)cc2)N=C1Nc1ccccc1 [M 2385a] | -0.1
8 | CC(=O)Oc1ccc(C=C2N=C(C)N(CCNC(=O)OC(C)(C)C)C2=O)cc1 [M 678] | -0.4
9 | CC1=NC(=Cc2cccc(F)c2O)C(=O)N1C [N 781] | 0
10 | COc1ccc(C=C2N=C(C)N(CCNC(=O)OC(C)(C)C)C2=O)cc1 [M 2022b] | 0
11 | CC(C)OC(=O)c1noc(C(=O)NCc2ccccc2)c1-c1cccc2ccccc12 [SA 343B] | -0.9
12 | COc1cc(O)ccc1/C=C/C1=[N+](C)c2ccccc2C1(C)C.[O-][Cl+3]([O-])([O-])[O-] [M 2761a] | 0.5
13 | CCN(CC)c1ccc(C=C2N=C3C=CC=CN3C2=O)cc1 [N 641] | -0.5
14 | CC1=NC(=Cc2ccccc2)C(=O)N1CCNC(=O)OC(C)(C)C [M 2022d] | -0.3
15 | CN1C(=O)C(=Cc2ccc(O)cc2)N=C1c1ccccc1 [M 750] | -0.2
16 | CN1C(=O)C(=Cc2ccc(O[Si](c3ccccc3)(c3ccccc3)C(C)(C)C)cc2)N=C1c1ccccc1 [Amm 75] | -0.3
17 | CC1=NC(=Cc2ccc3cc(N4CCCC4)ccc3c2)C(=O)N1C [N 555.3] | 0.7
18 | CC1=NC(=Cc2cccc([N+](=O)[O-])c2)C(=O)N1C [M 1257] | -0.9
19 | CC(C)(C)[Si](Oc1ccc(C=CC=O)cc1)(c1ccccc1)c1ccccc1 [M 1373.2] | -0.5
20 | COc1cc(C=C2SC(=S)NC2=O)cc(OC)c1O [DOM] | -0.6
21 | CC1=CC(C)(C)N(C)c2ccc(C=C3N=C(C)N(C)C3=O)cc21 [M 1152] | 0.6
22 | CC1=NC(=Cc2ccc(Br)cc2)C(=O)N1C [SV 51.10] | -0.2
23 | CC(C)OC(=O)c1noc(=O)c(O)c1-c1ccc(C(C)C)cc1 [SA 300D] | -1.2
24 | COc1cc(O)ccc1C=C1N=C(C=Cc2ccc(N(C)C)cc2)N(C)C1=O [MID 147] | 0.4
25 | COc1cc(O)ccc1/C=C1\N=C(C(C)=O)N(C)C1=O [N 1124] | 1.3
26 | CC1=CC(C)(C)N(C)c2ccc(C=CC3=NC(=Cc4ccc5c(c4)C(C)=CC(C)(C)N5C)C(=O)N3CCCC(=O)O)cc21 [N 62] | 0.6
27 | CCC1=NC(=Cc2ccc(O[Si](c3ccccc3)(c3ccccc3)C(C)(C)C)cc2)C(=O)N1O[Si](c1ccccc1)(c1ccccc1)C(C)(C)C [M 1505] | -0.3

Row | SMILES | LTR-III ΔTm [°C]
28 | COc1ccc(C=C2N=C(C)N(CCNC(=O)OC(C)(C)C)C2=O)cc1OC [M 2022e] | 0
29 | CC1=NC(=Cc2cc(Br)c(O)c(Br)c2)C(=O)N1C [M 906] | -2.7
30 | CCC1=NC(=Cc2ccc(O)cc2)C(=O)N1O [GA 15] | -0.1
31 | COc1ccc(C=C2N=C(C=C(OC(=O)c3ccc(C)cc3)c3ccc(C)cc3)N(C)C2=O)cc1 [SV 18] | 0.4
32 | O=C(O)c1ccc(-c2ccccc2)cc1 [X 26] | -0.1
33 | CC(C)(C)[Si](Oc1ccc(/C=C/CO)cc1)(c1ccccc1)c1ccccc1 [M 1359] | 0.1
34 | COc1ccc(-c2c(C(=O)OC(C)C)noc2C(=O)N2CCOCC2)cc1 [SA 341A] | -0.7
35 | C=CCc1cc(C=C2N=C(C)N(C)C2=O)ccc1O [X 11] | -0.2
36 | CN1C(=O)C(=Cc2ccc(SSc3ccc(C=C4N=C(C=Cc5cc(Br)c(O)c(Br)c5)N(C)C4=O)cc3)cc2)N=C1C=Cc1cc(Br)c(O)c(Br)c1 [N 898] | 0.1
37 | CCN(CC)c1ccc(C=C2N=C(C)NC2=O)cc1 [M 1045] | 0.1
38 | COc1ccc(C=CC2=NC(=Cc3ccnc4ccccc34)C(=O)N2C)cc1 [AL 125] | 1.7
39 | CC(=O)Oc1ccc(C=C2N=C(C)NC2=O)cc1 [X 13] | -0.8
40 | CC(C)OC(=O)c1noc(C(=O)N2CCCC2)c1-c1ccc(N(C)C)cc1 [SA 332.2] | -0.4
41 | COc1cc(O)ccc1C=C1N=C2C=CC=CN2C1=O [N 1123] | 0.3
42 | COc1cc(O)cc(OC)c1C=C1N=C(C=Cc2c(F)c(F)nc(F)c2F)N(C)C1=O [N 971] | 0.1
43 | CCN(CC)c1ccc2cc(C=C3N=C(C)N(C)C3=O)ccc2c1 [N 601.23] | -0.7
44 | COc1ccc(C(O)(c2ccccc2)c2ccccn2)cc1 (stereo not shown) [M 1136] | -0.7
45 | COc1cccc(C=C2N=C(C)N(C)C2=O)c1 [SV 50.11] | -0.2
46 | COc1ccccc1C=CC1=NC(=Cc2ccc(O)cc2)C(=O)N1CCNC(C)=O [ccE 7] | 0.3
47 | O=C1CN2C(=O)C(=Cc3ccc(O)cc3)N=C2C(=O)N1 [SA 102] | 0.2
48 | CCOC(=O)CN1C(=O)C(=Cc2ccc(O)c(F)c2)N=C1C [M 2286.1] | -0.3
49 | CC1=NC(=Cc2ccc(O)cc2)C(=O)N1CCO [GA 12] | 0.3
50 | COc1ccc(C=C2N=C(Nc3ccc(C#N)cc3)N(C)C2=O)cc1 [SA 179] | 0.7
51 | COc1cc(/C=C2N=C(/C=C/c3ccncc3)N(C)C\2=O)c(OC)cc1O [N 1048] | 1.5
52 | CC(=O)Oc1ccc(C=C2N=C(C=Cc3ccncc3)N(C)C2=O)cc1 [M 1009B] | 0.5
53 | COc1cc(/C=C2\N=C(C)N(C)C2=O)c(OC)cc1O [N 1036] | 0.5
54 | CNC(=O)C(=Cc1ccc(C#N)cc1)N=[N+]=[N-] [N 830A] | -0.1

Row | SMILES | LTR-III ΔTm [°C]
55 | CC1=NC(=Cc2ccncc2)C(=O)N1CCNC(=O)OC(C)(C)C [M 2250.2] | -0.1
56 | CC1=NC(=Cc2ccc(O)cc2)C(=O)N(O)C1=O [M 800] | -0.2
57 | COc1ccc(C=C2N=C(C)N(C3CCCCC3)C2=O)cc1 [ZS 129] | -0.2
58 | COc1cc(O)ccc1/C=C1N=C(/C=C/c2ccncc2)N(C)C\1=O [N 871B] | 0.4
59 | COc1ccc(C=CC2=NC(=Cc3ccc([N+](=O)[O-])cc3)C(=O)N2C)cc1 [AI 119] | 1.4
60 | CN1C(=O)C(=Cc2ccc(O)cc2)N=C1C=Cc1ccc(N(C)C)cc1 [ccA 22] | 0.3
61 | COc1ccc(/C=C2N=C(/C=C/N3CCOCC3)N(C)C\2=O)cc1 [M 2371c] | -0.1
62 | CCCC1=NC(=C(N)c2ccccc2)C(=O)N1 [M 1862] | -1.1
63 | COc1cc(O)ccc1C=C1N=C(C(=Cc2ccncc2)c2ccccc2)N(C)C1=O [N 1142] | 0.1
64 | COc1ccc(C=C2N=C(Nc3ccccc3)N(C)C2=O)cc1 [M 1944b] | -0.3
65 | COc1cc(O)cc(OC)c1C=C1N=C(C)N(C)C1=O [N 976] | 0.5
66 | CC1=NC(=Cc2ccccc2O)C(=O)N1C [M 1583.4] | 0.2
67 | CN1C(=O)C(=Cc2ccc(O)cc2)N=C1C=Cc1ccc(O)c([N+](=O)[O-])c1 [ccA 11] | 0.1
68 | CCCCN(CCCC)c1ccc(C=C2N=C(C)N(C)C2=O)cc1 [SA 33] | 0.2
69 | COc1ccc(-c2c(C(=O)OC(C)C)noc2C(=O)NC2CCCCC2)cc1 [SA 341B] | -0.2
70 | CCC1=NC(=Cc2ccc(OC)cc2)C(=O)N1C [M 497a2] | -0.4
71 | COc1ccc(C=C2N=C(C)N(C)C2=O)c(OC)c1 [M 2379] | 0.1
72 | CN1C(=O)/C(=C/c2ccc(O)cc2)N=C1/C=C/c1ccc(O)cc1 [ccA 2] | 0.4
73 | O=C1NC(/C=C/c2ccncc2)=NC/1=C\c1cc(F)c(O)c(F)c1 [N 863] | 0
74 | CC(C)OC(=O)c1noc(C(=O)N2CCCC2)c1-c1ccccc1 [SA 307A] | -0.3
75 | CC1=NC(=Cc2ccc(O)c(C(=O)O)c2)C(=O)N1C [SV 51.1] | -0.4
76 | COc1ccc(C=C2N=CN(C)C2=O)cc1 [N 599.2] | -0.7
77 | CN1C(=O)C(=Cc2ccc(OC(=O)c3ccccc3)cc2)N=C1C=C(OC(=O)c1ccccc1)c1ccccc1 [M 228] | -0.8
78 | CC(=O)C1=NC(=Cc2c[nH]c3cccc(C)c23)C(=O)N1C [M 1981] | 1.7
79 | CC1=NC(=Cc2cc(Br)cc(Br)c2)C(=O)N1C [SV 51.5] | -0.3
